Reference: patent US8338403B2, “Drug for improving hyperglycemia” (Morinaga Milk Industry Co., Ltd., priority 2004, dated 2012)

Legend:
[1] = test system: db/db mice (type-II diabetes model mice); assay: Test Example 1: hemoglobin A1c lowering action and hyperglycemic condition improving effect, 40-day oral administration; type: in vivo; settings: male db/db mice; for changes over time in random blood glucose levels / changes over time in fasting blood glucose levels / Hemoglobin A1c relative levels (%) 35th day from the administration: oral 1 mL of 1 μg/mL once a day; for changes over time in random blood glucose levels / changes over time in fasting blood glucose levels: 40 consecutive days; for changes over time in random blood glucose levels: FIG. 1; for changes over time in fasting blood glucose levels: after 15 hours of fasting, FIG. 2; for Hemoglobin A1c relative levels (%) 35th day from the administration: negative sample = 100
Experimental: This test was performed in order to evaluate the hemoglobin A1c lowering action and the hyperglycemic condition improving effect of the compounds of the present invention.
The compound 2 (4-methylcholest-7-en-3-ol), compound 3 (4-methylergost-7-en-3-ol) and compound 4 (4-methylstigmast-7-en-3-ol) produced in Preparation Example 1 mentioned above were used as test samples 1, 2 and 3, respectively.
Six-week old male db/db mice (purchased from Clea Japan, Inc.) were used as type-II diabetes model mice. These mice were divided into groups, each consisting of 7 animals. Each test sample was dissolved in DMSO, and the concentration was adjusted to 1 μg/mL with physiological saline. The final DMSO concentration was adjusted to 0.2%. […] The type-II diabetes model mice were orally administered with 1 mL of any of the test sample solutions once a day everyday with a sonde for 40 consecutive days. Further, β-sitosterol (Tama Biochemical Co., Ltd.) was administered to the model mice as a control sample 1. Fasting blood glucose levels and random blood glucose levels were measured over time by using Antisense II (Bayer-Sankyo Co., Ltd.). The fasting blood glucose levels were measured after 15 hours of fasting. Further, on the 35th day from the start of the administration, hemoglobin A1c levels were measured by using DCA 2000 (Bayer-Sankyo Co., Ltd.).

[2] = test system: db/db mice (type-II diabetes model mice); assay: Test Example 2: hemoglobin A1c lowering action compared with a clinical antidiabetic drug, 22-day oral administration; type: in vivo; settings: male db/db mice; for Hemoglobin A1c relative levels (%) 23th day from the administration: oral 1 mL once a day for 22 days (test samples 1 μg/mL; control sample 2 7.5 μg/mL pioglitazone hydrochloride), negative sample = 100; for decrease in hemoglobin A1c level in comparison with the negative sample: oral once a day, 23rd day
Experimental: Six-week old male db/db mice (purchased from Clea Japan, Inc.) were used as type-II diabetes model mice. These mice were divided into groups, each consisting of 7 animals. Each test sample was dissolved in DMSO, and the concentration was adjusted to 1 μg/mL with physiological saline. The final DMSO concentration was adjusted to 0.2%. […] Further, as a control sample 2, ACTOS® tablets (Takeda Pharmaceutical Co., Ltd.) were ground in a mortar and dissolved in physiological saline so that the concentration of pioglitazone hydrochloride as the active ingredient should become 7.5 μg/mL.

| Structure (SMILES) | changes over time in random blood glucose levels [1] | changes over time in fasting blood glucose levels [1] | Hemoglobin A1c relative levels (%) 35th day from the administration ([1]; 35th day) | Hemoglobin A1c relative levels (%) 23th day from the administration [2] | decrease in hemoglobin A1c level in comparison with the negative sample [2] | decrease in hemoglobin A1c level in comparison with the negative sample ([1]; oral once a day, 35th day) | hemoglobin A1c lowering effect (in words) ([1]; oral once a day, 35th day) |
| --- | --- | --- | --- | --- | --- | --- | --- |
| CC(C)C(C)CCC(C)C1CCC2C3=CCC4C(C)C(O)CCC4(C)C3CCC21C (stereo not shown) [test sample 2, 4-methylergost-7-en-3-ol] | effect of suppressing the increase in blood glucose levels was clearly observed | effect of suppressing the increase in blood glucose levels was clearly observed | 82.7 ± 21.0% | 91.0 ± 6.7% | about 11% | – | – |
| CCC(CCC(C)C1CCC2C3=CCC4C(C)C(O)CCC4(C)C3CCC21C)C(C)C (stereo not shown) [test sample 3, 4-methylstigmast-7-en-3-ol] | effect of suppressing the increase in blood glucose levels was clearly observed | effect of suppressing the increase in blood glucose levels was clearly observed | 77.8 ± 12.2% | 88.8 ± 9.0% | – | – | – |
| CC[C@H](CC[C@@H](C)[C@H]1CC[C@H]2[C@@H]3CC=C4C[C@@H](O)CC[C@]4(C)[C@H]3CC[C@]12C)C(C)C [control sample 1, β-sitosterol, reference compound] | rapid increases were observed | rapid increases were observed | 94.8 ± 8.5% | – | – | about 0.5% | almost no hemoglobin A1c lowering effect was observed |
| CC(C)CCCC(C)C1CCC2C3=CCC4C(C)C(O)CCC4(C)C3CCC21C (stereo not shown) [test sample 1, 4-methylcholest-7-en-3-ol] | effect of suppressing the increase in blood glucose levels was clearly observed | effect of suppressing the increase in blood glucose levels was clearly observed | 80.2 ± 19.2% | 89.9 ± 9.0% | about 11% | – | – |
